According to paper PMC6736568, “Discovery of Novel Anti-cryptosporidial Activities From Natural Products by in vitro High-Throughput Phenotypic Screening” (Frontiers in Microbiology, 2019):
Counter-ions that a name gives are not always drawn. Like-named read-outs stand apart in the source and are kept apart here.

Legend:
[1] = tested on: Cryptosporidium parvum; experiment: qRT-PCR assay of the growth of C. parvum in vitro in HCT-8 host cells (primary and secondary screening, EC50); format: cell-based; settings: Cryptosporidium parvum, HCT-8; for inhibition at 10 µM: primary screening at 10 uM, read-out: Inhibition (%); for inhibition at 3.3 µM: secondary screening at 3.3 uM, read-out: % Inhibition (3.3 uM)
[2] = tested on: HCT-8 host cells (Hs18S)
[3] = in vitro
[4] = primary screening at 10 uM, treated vs control

SMILES	inhibition at 10 µM [1]	Hs18S ΔCT ([2]; human, 41 h, 10 μM)	cytotoxicity at 41 h, 10 µM ([3]; human)	Hs18S ΔCT [2, 4]	cytotoxicity at 10 µM [3]	inhibition at 3.3 µM [1]	Hs18S ΔCT [2]	cytotoxicity at 41 h, 10 µM [3]
CC1(C)O[C@H]2CC(=O)OC[C@]23[C@H]2CC[C@@]4(C)[C@H](c5ccoc5)OC(=O)[C@H]5O[C@]54[C@]2(C)C(=O)C[C@@H]13 [LIMONIN]	26.2%	-0.12	-8.4%	–	–	–	–	–
CCCCCCCCCCCCCCCCCCOCC(O)CO (stereo not shown) [BATYL ALCOHOL]	41.3%	-0.57	-48%	–	–	–	–	–
C=CC(C1=CC(=O)C(OC)=CC1=O)c1ccccc1 (stereo not shown) [4-METHOXYDALBERGIONE]	-28.5%	-0.03	-2.3%	–	–	–	–	–
C[n+]1cc2c3c(ccc2c2ccc4cc5c(cc4c21)OCO5)OCO3 [SANGUINARINE SULFATE]	18.6%	–	–	0.07	4.9%	–	–	–
CCC(C)C(=O)O[C@@H]1C[C@@]2(C)[C@H](c3ccoc3)OC(=O)CC23OC2(C)O[C@]14[C@]1(C)[C@@H](CC(=O)OC)C5(C)CC1(O)[C@](O)(C5OC(=O)C1(C)OC1C)[C@@H](OC(C)=O)[C@]34O2 (stereo partly shown) [UTILIN]	36.8%	0.06	4.2%	–	–	–	–	–
CC(=O)c1ccc[nH]1 [2-ACETYLPYRROLE]	22.6%	-0.43	-34.6%	–	–	–	–	–
Cc1cc2c(C(C)C)c(O)c(O)c(C=O)c2c(O)c1-c1c(C)cc2c(C(C)C)c(O)c(O)c(C=O)c2c1O [GOSSYPOL]	21.4%	–	26.6%	0.45	–	–	–	–
COc1ccc([C@H]2COc3c(ccc(O)c3OC)C2)c(OC)c1O [DUARTIN (-)]	-26.9%	-0.20	-15.3%	–	–	–	–	–
c1cncc([C@@H]2CCCCN2)c1 [ANABASINE HYDROCHLORIDE]	6.88%	–	–	-0.08	-5.5%	–	–	–
C=CC1=C(C)/C(=C/c2[nH]c(Cc3[nH]c(/C=C4\NC(=O)C(C)=C4C=C)c(C)c3CCC(=O)O)c(CCC(=O)O)c2C)NC1=O [BILIRUBIN]	-7.55%	-0.01	-0.9%	–	–	–	–	–
COc1ccc(-c2c(O)c3c(OC)c4c(cc3oc2=O)OC(C)(C)C=C4)cc1 [ROBUSTIC ACID]	9.13%	0.28	17.8%	–	–	–	–	–
COC(=O)C[C@H]1C(C)(C)C2(O)OC34CC2C(=O)[C@]1(C)C3CC[C@]1(C)C4=CC(=O)O[C@H]1c1ccoc1 (stereo partly drawn) [8beta-HYDROXYCARAPIN, 3,8-HEMIACETAL]	89.7%	0.18	11.8%	–	–	64%	–	–
COC(=O)c1cc(OC)c(=O)c2c(OC)c(OC)ccc2c1 [METHYL 7-DESOXYPURPUROGALLIN-7-CARBOXYLATE TRIMETHYL ETHER]	-15.9%	0.00	0.1%	–	–	–	–	–
O=c1cc[nH]c(=O)[nH]1 [URACIL]	2.08%	–	-21.4%	-0.28	–	–	–	–
N=C(N)NOCC[C@H](N)C(=O)O [CANAVANINE]	-3.4%	–	–	0.29	18.4%	–	–	–
O=c1c(O)c(-c2ccc(O)cc2)oc2cc(O)cc(O)c12 [KAEMPFEROL]	19.8%	0.54	31.2%	–	–	–	–	–
Cc1cc(O)c2c(O)c3c(O)cccc3cc2c1 [CHRYSAROBIN]	-8.96%	0.48	28.2%	–	–	–	–	–
O=c1ccc2ccc(O)cc2o1 [UMBELLIFERONE]	-15.7%	–	–	–	-88.9%	–	-0.92	–
O=c1c2ccccc2oc2ccccc12 [XANTHONE]	0.45%	0.13	8.9%	–	–	–	–	–
CCCCCC[C@H]1C(=O)O[C@H](C)[C@H](NC(=O)c2cccc(NC=O)c2O)C(=O)O[C@@H](C)[C@@H]1OC(=O)CC(C)C [ANTIMYCIN A, ANTIMYCIN A (A1 shown)]	10.9%	–	–	0.12	7.7%	–	–	–
C[C@@H]1O[C@@H](O[C@H]2[C@H](Oc3cc(O)c4c(c3)O[C@H](c3ccc(O)cc3)CC4=O)O[C@H](CO)[C@@H](O)[C@@H]2O)[C@H](O)[C@H](O)[C@H]1O [NARINGIN]	2.06%	0.16	10.4%	–	–	–	–	–
NC(=O)NC1NC(=O)NC1=O (stereo not shown) [ALLANTOIN]	8.13%	-0.22	-16.1%	–	–	–	–	–
NCC(O)c1ccc(O)cc1 (stereo not shown) [OCTOPAMINE HYDROCHLORIDE]	85.1%	-0.21	-15.8%	–	–	-12%	–	–
Cn1c(=O)c2[nH]cnc2n(C)c1=O [THEOPHYLLINE]	20.5%	–	–	-0.29	-22.6%	–	–	–
CC1=C(/C=C/C(C)=C/C=C/C(C)=C/C(=O)O)C(C)(C)CCC1 [TRETINOIN]	7.49%	-0.28	-21.5%	–	–	–	–	–

SMILES	inhibition at 10 µM [1]	Hs18S ΔCT ([2]; human, 41 h, 10 μM)	cytotoxicity at 41 h, 10 µM ([3]; human)	Hs18S ΔCT [2, 4]	cytotoxicity at 10 µM [3]	inhibition at 3.3 µM [1]	Hs18S ΔCT [2]	cytotoxicity at 41 h, 10 µM [3]
CC[C@@]1(O)C[C@H](O[C@H]2C[C@H](N(C)C)[C@H](O)[C@H](C)O2)c2c(cc3c(c2O)C(=O)c2c(O)ccc(O)c2C3=O)[C@H]1C(=O)OC [PYRROMYCIN]	-46.1%	–	–	0.35	21.5%	–	–	–
C[C@]12CC[C@H](O)CC1=CC[C@@H]1[C@@H]2CC[C@]2(C)C(=O)CC[C@@H]12 [DEHYDROEPIANDROSTERONE]	7.05%	–	–	-0.03	-1.9%	–	–	–
COc1ccc2c(=O)c(CC(=O)O)coc2c1 [ANHYDROBRAZILIC ACID]	11.9%	-0.01	-0.5%	–	–	–	–	–
CCCCCCCCCCCCCCCC(=O)OCC(O)CO (stereo not shown) [1-MONOPALMITIN]	14.2%	-0.10	-7.1%	–	–	–	–	–
COc1cc(/C=C/C(=O)CC(=O)/C=C/c2ccc(O)c(OC)c2)ccc1O [CURCUMIN]	24.3%	–	2.4%	0.03	–	–	–	–
COc1ccc(/C=C/c2cc(O)cc(O)c2)cc1 [RESVERATROL 4'-METHYL ETHER]	-37.3%	–	–	-0.37	-29%	–	–	–
CCOc1ccc(C(=O)c2ccc(OC)c(O)c2O)cc1 [2,3-DIHYDROXY-4-METHOXY-4'-ETHOXYBENZOPHENONE]	39%	-0.12	-8.6%	–	–	–	–	–
CC[C@H]1OC(=O)[C@H](C)[C@@H](O[C@H]2C[C@@](C)(OC)[C@@H](O)[C@H](C)O2)[C@H](C)[C@@H](O[C@@H]2O[C@H](C)C[C@H](N(C)C)[C@H]2O)[C@](C)(O)C[C@@H](C)C(=O)[C@H](C)[C@@H](O)[C@]1(C)O [ERYTHROMYCIN]	94.6%	0.62	35%	–	–	-13%	–	–
COC(=O)c1cc(O)c(=O)c2c(O)c(O)ccc2c1 [METHYL 7-DESHYDROXYPYROGALLIN-4-CARBOXYLATE]	-4.08%	0.16	10.5%	–	–	–	–	–
CC(=O)Oc1ccc(O)cc1 [4-ACETOXYPHENOL]	-14.1%	0.21	13.4%	–	–	–	–	–
Cc1c[nH]cn1 [4-METHYLIMIDAZOLE]	-27.8%	–	–	0.18	11.5%	–	–	–
O=C(/C=C/c1ccc(O)c(O)c1)O[C@@H]1C[C@](O)(C(=O)O)C[C@@H](O)[C@H]1O [CHLOROGENIC ACID]	-24.5%	-0.13	-9.1%	–	–	–	–	–
CNc1ccccc1C(=O)O	-14.8%	–	–	–	13%	–	0.20	–
Cc1c(C(=O)O)c(O)cc2c1C(=O)c1c(O)c([C@@H]3O[C@H](CO)[C@@H](O)[C@H](O)[C@H]3O)c(O)c(O)c1C2=O [CARMINIC ACID]	-24.9%	-0.10	-7.5%	–	–	–	–	–
COc1c(-c2coc3cc4c(cc3c2=O)CC(O)C(C)(C)O4)ccc2c1C=CC(C)(C)O2 (stereo not shown) [MUNDULONE]	61.8%	0.22	14.4%	–	–	-43%	–	–
O=C(O)CCC1NCC2CC1CN1CCCCC21 (stereo not shown) [LUPANYL ACID HYDROCHLORIDE]	5.4%	0.09	6%	–	–	–	–	–
CCCCCC(=O)Cc1cc(O)cc(O)c1C(=O)Oc1cc(CC(=O)CCCCC)c(C(=O)O)c(OC)c1 [ARTHONIOIC ACID]	-25.4%	0.02	1.1%	–	–	–	–	–
CC(C)CCC[C@@H](C)[C@H]1CC[C@H]2[C@@H]3CC(=O)[C@H]4C[C@@H](O)CC[C@]4(C)[C@H]3CC[C@]12C [5alpha-CHOLESTAN-3beta-OL-6-ONE]	-27.8%	–	–	0.53	–	–	–	30.6%
C[n+]1cccc(C(=O)[O-])c1 [TRIGONELLINE]	-29.9%	0.03	2.2%	–	–	–	–	–
Nc1ncnc2c1ncn2[C@@H]1O[C@H](CO)[C@@H](O)[C@H]1O [ADENOSINE]	-13.4%	0.02	1.5%	–	–	–	–	–
COC(=O)C[C@H]1C(C)(C)C(=O)[C@@H]2CC3C4=CC(=O)O[C@@H](c5ccoc5)[C@]4(C)CC[C@@H]3[C@@]1(C)C2=O (stereo partly shown) [CARAPIN]	30.7%	-0.07	-5.2%	–	–	–	–	–
O=c1c(-c2ccc(O)cc2)coc2cc(O)ccc12 [DAIDZEIN]	39.2%	0.01	0.7%	–	–	–	–	–
CCOC(=O)c1c(C)cc(O)cc1O [ORSELLINIC ACID, ETHYL ESTER]	23.7%	-0.12	-8.3%	–	–	–	–	–
C[C@]12CC[C@@H]3c4ccc(O)cc4CC[C@H]3[C@@H]1CC[C@@H]2O [ESTRADIOL]	22%	-0.19	-13.8%	–	–	–	–	–
